Entries after “also recorded” stand apart in the source; their conditions may differ. Where two headings read alike, the source gives them in different places.
Legend:
[1] = system: SARS-CoV-2; experiment: microbe, parasite or virus in culture; format: cell-based
[2] = system: Vero CCL-81 cells; experiment: cells; format: cell-based, African green monkey; details: non-infected Vero CCL-81, 48 h; for IC50: Chlorocebus sabaeus, DAPI, read-out: IC50 (ñ inf), relative cell nucleus number
[3] = system: SARS-CoV-2; format: cell-based
[4] = system: spike protein; format: cell-based, SARS-CoV-2
[5] = system: ACE2; format: cell-based, African green monkey; details: compounds at IC50 (50 μM for 9); for ACE2 levels compared to vehicle: infected Vero CCL-81, Western blot; for ACE2 Levels (Vero CCL-81 Monkey Cells): infected cells
[6] = system: A549 cells; experiment: Sulforhodamine B (SRB) cytotoxicity assay in A549 cells; format: cell-based, human; details: for Cytotoxicity in A549 human lung cells: 48 h, SRB, five serial dilutions
Description: (§1) To determine the cytotoxic effect of the tested compounds, the SRB assay was performed according to the previously described protocols. The concentration of each compound that caused 50% of cell growth inhibition (GI50) was determined from the dose response curve. A549 cells were plated in 96-well plates at a previously determined optimal cell concentration (5 × 10^4 cells/mL) and incubated for 24 h. Then, cells were treated with different concentrations of the tested compounds for 48 h. The following procedure was accomplished as previously described. Using the Gen5^TM software (version 1.04.5), the absorbance was measured at 510 nm in a multiplate reader (Synergy^TM Mx, Biotek Instruments Inc., Winooski, VT, USA).

[7] = system: Vero CCL-81 cells
[8] = system: ACE2; experiment: ACE2 expression levels in MDA-MB-231 cells (Western blot); format: cell-based, human; details: 10 μM, 48 h
Description: For protein expression analysis, MDA-MB-231 and Vero CCL-81 cells were seeded in 6-well plates and incubated for 24 h. Then, the cells were treated with the tested compounds at 10 μM or at their respective IC50. Cell pellets were collected after 48 h incubation, and the following lysis, quantification, and Western Blot procedures were performed as previously described, except for the following points: (i) no phosphatase inhibitor was used; (ii) a total of 15 μg of protein lysates obtained from MDA-MB-231 cells treatment or 50 μg of protein lysates obtained from Vero CCL-81 cells were loaded and separated in 10% SDS-Page gels; (iii) the transference to a nitrocellulose membrane (GE Healthcare Life science, Chalfont St Giles, UK; GE10600002) occurred for 1 h 45 min at 100 V; (iv) the primary antibodies (1:2000) used were: mouse anti-ACE2 monoclonal antibody (CL4035; Thermo Fischer Scientific; Waltham, MA, USA) and mouse anti-actin (sc-47778; Santa Cruz Biotechnology, Dallas, TX, USA).

[9] = in vitro; details: African green monkey
[10] = Sulforhodamine B (SRB) cytotoxicity assay in A549 cells; format: cell-based, human; details: human, A549 cells; SRB assay, 48 h; read-out: Cytotoxic IC50 (A549 Human Lung Cells)
Description: as §1

[11] = system: Vero CCL-81 cells; experiment: cells; details: Chlorocebus sabaeus, 48 h, read-out: IC50 (inf), relative cell nucleus number
[12] = Severe acute respiratory syndrome coronavirus 2, in Primates, 48 h, read-out: Antiviral IC50 (Vero CCL-81 Monkey Cells)
[13] = Homo sapiens, A549, 48 h, read-out: GI50 (concentration that inhibits 50% of cell growth), A549, 48 h, SRB assay

Q: Which results are given for `O=c1c2ccc(NCc3ccccc3)cc2oc2cc(OS(=O)(=O)C(F)(F)F)ccc12` [Compound 10]?
A: Effect on cell infection by SARS-CoV-2 [1]: did not inhibit cell infection; Relative cell number of non-infected cells [2]: increased the relative cell number of non-infected cells

Q: Which results are given for `O=c1c2ccc(OCc3cn(C4OC(COS(=O)(=O)O)C(OS(=O)(=O)O)C(OS(=O)(=O)O)C4OS(=O)(=O)O)nn3)cc2oc2cc(OCc3cn(C4OC(COS(=O)(=O)O)C(OS(=O)(=O)O)C(OS(=O)(=O)O)C4OS(=O)(=O)O)nn3)ccc12` (stereo not shown) [Compound 9]?
A: Effect on cell infection by SARS-CoV-2 [1]: reduced cell infection; IC50(viral), relative number of infected cells [1]: not reached at the tested concentrations; Relative cell number of non-infected cells [2]: increased the relative cell number of non-infected cells; Viral Titer and Spike Levels (Vero CCL-81 Monkey Cells) [3]: −; Viral titer [3]: 7.0 × 10^3 FFU/mL; Levels of spike protein compared to vehicle [4]: did not cause any significant change; ACE2 levels compared to vehicle [5]: did not alter ACE2 expression significantly; ACE2 Levels (Vero CCL-81 Monkey Cells) [5]: −; Cytotoxicity in A549 human lung cells [6]: did not exhibited cytotoxicity at the tested concentrations; Cytotoxicity in infected Vero CCL-81 cells (number of cell nuclei) [7]: without causing cytotoxicity

Q: Which results are given for `O=c1c2ccc(OCc3cn(C4OC(COS(=O)(=O)O)C(OS(=O)(=O)O)C(OS(=O)(=O)O)C4OS(=O)(=O)O)nn3)cc2oc2cc(OCc3cn(C4OC(COS(=O)(=O)O)C(OS(=O)(=O)O)C(OS(=O)(=O)O)C4OS(=O)(=O)O)nn3)ccc12` (stereo not shown) [Compound 7]?
A: IC50 [1, 12]: 31.7 µM; Relative cell number of non-infected cells [2]: increased the relative cell number of non-infected cells; Viral Titer and Spike Levels (Vero CCL-81 Monkey Cells) [3]: −; Viral titer [3]: 6.1 × 10^3 FFU/mL; Levels of spike protein compared to vehicle [4]: did not cause any significant change; ACE2 levels compared to vehicle [5]: slight decrease; also recorded: did not alter ACE2 expression significantly; ACE2 Levels (Vero CCL-81 Monkey Cells) [5]: −; Cytotoxicity in A549 human lung cells [6]: did not exhibited cytotoxicity at the tested concentrations; Cytotoxicity in infected Vero CCL-81 cells (number of cell nuclei) [7]: without causing cytotoxicity

Q: For `Cc1ccnc(NS(=O)(=O)c2ccc(NC3c4ccccc4Oc4ccccc43)cc2)n1` [Compound 1], which IC50 [1, 12] is on record?
A: 12.6 µM

Q: What about the IC50 [2] of the same molecule?
A: 28.9 µM

Q: And the Viral titer [3]?
A: 1.4 × 10^3 FFU/mL

Q: What about the “Levels of spike protein compared to vehicle” value [4] of the same molecule?
A: significantly decreased

Q: What about the “ACE2 levels compared to vehicle” value [5] of the same molecule?
A: did not alter ACE2 expression significantly

Q: And the “ACE2 Levels (Vero CCL-81 Monkey Cells)” value [5]?
A: −

Q: And the “ACE2 expression levels in MDA-MB-231 cells” value [8]?
A: did not significantly affect

Q: And the “Cytotoxicity in A549 human lung cells” value [6]?
A: did not exhibited cytotoxicity at the tested concentrations

Q: What about the “GI50 (concentration that inhibits 50% of cell growth)” value ([6]; A549, 48 h, SRB assay) of the same molecule?
A: not reached with the concentrations tested

Q: And the “Cytotoxicity in infected Vero CCL-81 cells (number of cell nuclei)” value (“Cytotoxicity … (number of cell nuclei)” for short) [7]?
A: some cytotoxicity

Q: And the IC50 [9]?
A: 18.4 µM

Q: What does the source list for `O=C(NC1c2ccccc2Oc2ccccc21)N(O)C1c2ccccc2Oc2ccccc21` [Compound 3]?
A: Effect on cell infection by SARS-CoV-2 [1]: did not inhibit cell infection; Relative cell number of non-infected cells [2]: increased the relative cell number of non-infected cells; Cytotoxicity in infected Vero CCL-81 cells (number of cell nuclei) [7]: significantly higher cytotoxicity in infected cells compared to non-infected cells

Q: Which “Effect on cell infection by SARS-CoV-2” value [1] does the source give for `O=c1c2ccccc2oc2c(O)c(OC3OC(COS(=O)(=O)O)C(OS(=O)(=O)O)C(OS(=O)(=O)O)C3OS(=O)(=O)O)ccc12` (stereo not shown) [Compound 8] here?
A: did not inhibit cell infection

Q: Which results are given for `C[C@H](CCC(=O)N1CCOCC1)[C@H]1CC[C@H]2[C@@H]3CC[C@@H]4C[C@H](O)CC[C@]4(C)[C@H]3C[C@H](O)[C@]12C` [Compound 4]?
A: IC50 [1, 12]: 24.1 µM; Relative cell number of non-infected cells [2]: increased the relative cell number of non-infected cells; Viral titer [3]: 1.5 × 10^3 FFU/mL; Levels of spike protein compared to vehicle [4]: significantly decreased; ACE2 levels compared to vehicle [5]: did not alter ACE2 expression significantly; ACE2 Levels (Vero CCL-81 Monkey Cells) [5]: −; ACE2 expression levels in MDA-MB-231 cells [8]: did not significantly affect; IC50 at 48 h [10]: 19.8 µM; GI50 ([6]; A549, 48 h, SRB assay, read-out: GI50 (concentration that inhibits 50% of cell growth)): 19.8 µM; GI50 [6, 13]: 19.8 µM

Q: Which “Effect on cell infection by SARS-CoV-2” value [1] does the source give for `O=c1c2ccc(OCc3cn(C4OC(CO)C(O)C(O)C4O)nn3)cc2oc2cc(OCc3cn(C4OC(CO)C(O)C(O)C4O)nn3)ccc12` (stereo not shown) [Compound 6] here?
A: did not inhibit cell infection

Q: For `Cc1ccc(C(=O)Nc2ccc(CN3CCN(C)CC3)c(C(F)(F)F)c2)cc1C#Cc1cnc2cccnn12` [Ponatinib, reference compound], which “Effect on cell infection by SARS-CoV-2” value [1] is on record?
A: did not inhibit cell infection

Q: What about the IC50 ([1]; Severe acute respiratory syndrome coronavirus 2, 48 h, read-out: IC50(viral), relative number of infected cells) of the same molecule?
A: 0.93 µM

Q: And the IC50 [2]?
A: 1.36 µM

Q: What about the “Cytotoxicity … (number of cell nuclei)” value [7] of the same molecule?
A: some cytotoxicity

Q: And the IC50 [11]?
A: 0.7 µM

Q: With `Cc1cc(C)nc(NS(=O)(=O)c2ccc(NC3c4ccccc4Oc4ccccc43)cc2)n1` [Compound 2] as the molecule, how does the IC50 [1, 12] read?
A: 11.9 µM

Q: What about the IC50 [2] of the same molecule?
A: 19.8 µM

Q: What about the Viral titer [3] of the same molecule?
A: 1.7 × 10^3 FFU/mL

Q: And the “Levels of spike protein compared to vehicle” value [4]?
A: significantly decreased

Q: And the “ACE2 levels compared to vehicle” value [5]?
A: did not alter ACE2 expression significantly

Q: And the “ACE2 Levels (Vero CCL-81 Monkey Cells)” value [5]?
A: −

Q: And the “ACE2 expression levels in MDA-MB-231 cells” value [8]?
A: did not significantly affect

Q: And the IC50 at 48 h [10]?
A: 31.9 µM

Q: What about the GI50 [6, 13] of the same molecule?
A: 31.9 µM

Q: What about the “Cytotoxicity … (number of cell nuclei)” value [7] of the same molecule?
A: some cytotoxicity

Q: What about the IC50 [9] of the same molecule?
A: 17.2 µM

Q: Which “Effect on cell infection by SARS-CoV-2” value [1] does the source give for `Nc1cccc2c1CCN(c1ccc3c(=O)c4ccc(N5CCc6c(N)cccc6C5)cc4oc3c1)C2` [Compound 5] here?
A: did not inhibit cell infection

— article PMC10609270 (Molecules, 2023)
